Measured values published in patent US12350273B2, “Treatment of SMA” (Hoffmann-La Roche Inc., priority 2017, dated 2025).

Key:
[1] = Stability of test item formulations; format: physicochemical; conditions: formulations 0.025 to 5 mg/mL, 2 to 8° C., absence of oxygen (under nitrogen)
Procedure: The test item was formulated as a solution in 10 mM ascorbic acid/0.0064 mg/mL sodium thiosulfate at pH 3. The formulations were stored at 2 to 8° C. with absence of oxygen (under nitrogen), protected from the light in a sealed container. They were allowed to reach room temperature prior to dosing and were stirred on arrival at the animal room and then continuously throughout dosing.

[2] = tested on: human iPSCs; assay: Cell cycle analysis of human iPSCs (flow cytometry); format: cell-based; conditions: for percentage of events in G1 phase, mean / percentage of events in G2 phase, mean / percentage of events in S phase, mean: 24 h
Procedure: (§1) For the analysis of the cell cycle, monkey stem cells were detached with Accutase (Stem Cell Technologies) and plated at 15000 cells/cm2 in 6 well plates coated with Matrigel (BD Biosciences) in MT medium supplemented with 10 ng/ml ActivinA, 15 ng/ml FGF2, and 10 μM Rock inhibitor. Cells were expanded for 1 day and then synchronized by starvation for 7 h in MT medium without supplements FGF2 and ActivinA. Before flow cytometry, cells were incubated for 24 h with fresh MT medium containing supplements FGF2 and ActivinA and test items at 80 nM, 400 nM, and 2000 nM or 30 nM rapamycin as positive control to arrest cells in G1 phase. Human stem cells were detached with Accutase (Stem Cell Technologies) and plated at 40000 cells/cm2 in 6 well plates coated with Matrigel (BD Biosciences) in mTeSR1 supplemented with 10 μM Rock Inhibitor Y-27632 (Sigma-Aldrich). Cells were expanded for 3 days with daily medium change. Since human iPSCs lose their properties during starvation by growth factor withdrawal, stem cells were synchronized with 200 ng/ml Nocodazole (Sigma-Aldrich) for 5 h and washed subsequently 2 times with mTesR1 Medium. Before flow cytometry, cells were incubated for 24 h with fresh TesR1 medium containing test items at 80 nM, 400 nM, and 2000 nM or 30 nM rapamycin as positive control to arrest cells in G1 phase.
(§2) For cell cycle analysis, human iPSCs were washed with PBS, detached with Accutase (Stem Cell Technologies) and collected by centrifugation. Cells were stained for 1 h at 37° C. with 600 ul of 7 AAD/Saponin/RNAse mix ([…] 7 AAD (#559925, BD), 50 μg/ml RNase, and 0.03% Saponin dissolved in FACS buffer (PBS, 5% FBS, 10 mM Hepes)). Cynomolgus monkey iPSCs were washed with PBS, detached with Accutase (Stem Cell Technologies) and collected by centrifugation. Cells were stained for 30 min at 37° C. in 300 ul standard MT medium (with FGF2 and ActivinA) containing 1 ul Vybrant Dye Cycle Violet Stain (#V35003, 1000× stock, Invitrogen) per ml medium. Additionally 2 ul 7 AAD (50 μg/ml 7 AAD) were added without permeabilization to label dead cells; cells were incubated for 10 min at 37° C. Flow cytometry analysis was performed using a Canto II cytometer (BD Biosciences) and data were analysed with the FlowJo software.

[3] = tested on: Cynomolgus monkey iPSCs; assay: Cell cycle analysis of Cynomolgus monkey iPSCs (flow cytometry); format: cell-based; conditions: for percentage of events in G1 phase, mean / percentage of events in G2 phase, mean / percentage of events in S phase, mean: Cynomolgus monkey iPSCs, 24 h
Procedure: as §1, §2

[4] = tested on: retina; conditions: monkey, in vivo
Text: Over the in-life duration of the 39-week monkey toxicity study with RO7034067, the low dose remained free of any test-item related changes in sdOCT and ERG until the last week of assessment (week 35).

[5] = tested on: MADD gene transcripts; assay: 2-week dose-range finding toxicity study in rat: MADD splicing in spleen, duodenum, testis; format: in vivo; conditions: rats treated 2 weeks, highest dose of 7.5 mg/kg/day
Procedure: Gene expression analysis was performed in spleen, duodenum, and testis in rats treated for 2 weeks (MADD gene). […] The changes in splicing of MADD transcripts are consistent with the observations of apoptosis in the GI tract observed at the same dose since MADD gene products have been reported to interfere with the apoptosis processes.

[6] = tested on: MADD gene transcript; assay: 2-week dose-range finding toxicity study in cynomolgus monkey: MADD splicing in spleen, duodenum, testis; format: in vivo; conditions: cynomolgus monkey 2 weeks, highest dose (0.75, 1.5, 3 and 6 mg/kg/day tested); all three organs
Procedure: Similar investigations were integrated into the 2-week dose-range finding toxicity study conducted in the cynomolgus monkey with RO7034067. For this purpose, spleen, duodenum, and testis were analyzed from the animals treated with 0.75, 1.5, 3 and 6 mg/kg/day. […] Since secondary pharmacology was detected in spleen, this organ was further analyzed for transcriptome-wide mRNA splicing or expression changes by RNA-sequencing. […] Furthermore, a dose-dependent trend for pathway expression changes was not detected. Therefore, while the few changes in RO7034067-mediated alternative transcript splicing are consistent with in vitro data and those of other SMN2 splicing modifiers, they seem not to fundamentally affect biological pathways or processes under the conditions of this study.

[7] = Aqueous solubility; format: physicochemical
[8] = Melanin binding in vitro; format: in vitro ADME
[9] = 39-week monkey toxicity study: retina effects (ERG, sdOCT, histopathology), NOAEL; conditions: cynomolgus monkey; for AUC(0-t): plasma

SMILES: Cc1cn2nc(-c3cc(=O)n4cc(N5CCNC6(CC6)C5)ccc4n3)cc(C)c2n1 [RO7034067, 7-(4,7-diazaspiro[2.5]octan-7-yl)-2-(2,8-dimethylimidazo[1,2-b]pyridazin-6-yl)pyrido[1,2-a]pyrimidin-4-one]
- time formulations were stable [1]: up to 4 weeks
- percentage of events in G1 phase, mean ([2]; 80 nM): 44.6%
- percentage of events in G2 phase, mean ([2]; 80 nM): 29.2%
- percentage of events in S phase, mean ([2]; 80 nM): 26.2%
- percentage of events in G1 phase, mean ([2]; 400 nM): 40.8%
- percentage of events in G2 phase, mean ([2]; 400 nM): 31.4%
- percentage of events in S phase, mean ([2]; 400 nM): 27.8%
- percentage of events in G1 phase, mean ([2]; 2000 nM): 37.6%
- percentage of events in G2 phase, mean ([2]; 2000 nM): 29.3%
- percentage of events in S phase, mean ([2]; 2000 nM): 33.1%
- effect on cell cycle ([2]; concentration-dependent): cell cycle arrest in S phase
- percentage of events in G1 phase, mean ([3]; 80 nM): 33.8%
- percentage of events in G2 phase, mean ([3]; 80 nM): 52.2%
- percentage of events in S phase, mean ([3]; 80 nM): 14.0%
- percentage of events in G1 phase, mean ([3]; 400 nM): 30.3%
- percentage of events in G2 phase, mean ([3]; 400 nM): 55.8%
- percentage of events in S phase, mean ([3]; 400 nM): 14.0%
- percentage of events in G1 phase, mean ([3]; 2000 nM): 25.3%
- percentage of events in G2 phase, mean ([3]; 2000 nM): 61.3%
- percentage of events in S phase, mean ([3]; 2000 nM): 13.4%
- effect on cell cycle ([3]; monkey iPSCs, concentration-dependent): cell cycle arrest in G2 phase
- individual AUC0-24h exposures without retina changes [4]: up to 15,100 ng·h/mL
- gene expression analysis of MADD gene transcripts [5]: splicing response
- mRNA isoform specific qPCR of MADD gene transcript [6]: secondary pharmacological response
- aqueous solubility [7]: high aqueous solubility
- melanin binding [8]: high melanin binding
- NOAEL at 39 weeks ([9]; both, in vivo, po): 1.5 mg/kg/day
- AUC(0-t) ([9]; oral): 4260 ng·h/mL
- AUC(0-t) ([9]; female, po, 3 mg/kg/day): 4850 ng·h/mL
- AUC(0-t) ([9]; female, po, 5 mg/kg/day): 6470 ng·h/mL
- AUC(0-t) ([9]; male, po, 3 mg/kg/day): 4880 ng·h/mL
- AUC(0-t) ([9]; male, po, 5 mg/kg/day): 5880 ng·h/mL
